The values below are quoted from earlier work in patent US7195882B2, “Monoclonal antibodies specific for buprenorphine and metabolites thereof” (priority 2003, dated 2007).

The structures appear in SMILES notation.

The conditions of the series: in vivo.

With `CO[C@]12CC[C@@]3(C[C@@H]1[C@](C)(O)C(C)(C)C)[C@H]1Cc4ccc(O[C@@H]5O[C@H](C(=O)O)[C@@H](O)[C@H](O)[C@H]5O)c5c4[C@@]3(CCN1CC1CC1)[C@H]2O5` [buprenorphine glucuronide, buprenorphine 3-O-β-D-glucuronide], the appearance in urine is 1 to 2 days.
